Experimental data published in patent publication US20100210535A1, “[…] USE OF NE[…] AND ACTH 7-38 AND COMPOSITIONS THEREOF” (priority 2007, published 2010).
Where no end group is shown, it is not given here.

Legend:
[1] = system: hepatitis B virus (HBV) ayw strain; experiment: HBV experimental assay system, HepG2-2.2.15, secreted HBV DNA by TaqMan PCR; assay type: cell-based; conditions: 10 micrograms per ml, HepG2-2.2.15 cells, six days
[2] = system: HCMV strain AD169; experiment: HCMV plaque formation assay in MRC-5 cells; assay type: cell-based; conditions: 10 micrograms per ml, 7-10 days
Text: Ganciclovir was used as positive control.

[3] = system: spleen cells; experiment: Th1/Th2 cytokine profiling assay (Ovalbumin-restimulated spleen cells, CBA kit); assay type: cell-based, Balb/c mice; conditions: 10 micrograms per ml; Ovalbumin restimulation; 72 hours
Text: The Balb/c mice (originated in 1923, it is a popular strain and is used in many different research disciplines. Also classified as an inbred from the production of 20 or more successive brother-sister matings, the Balb/c mouse is albino and small in size) were immunized on Days 1, 15, and 29 with Ovalbumin (Ovalbumin is the main protein found in egg white, commonly used to stimulate an immunological reaction in test animals) in PBS (5 micrograms/injection). On day 50, spleens of the mice were harvested (3 weeks after last boost with Ovalbumin). Cells were cultured (2×10^5/well in triplicate) and incubated with culture medium or test peptides—10 micrograms per ml—for 30 min. Thereafter, additional Ovalbumin was added to the cells at 10 micrograms/ml for in vitro restimulation of the cells. 72 hours later, cell supernatants were harvested and assayed using the Becton Dickinson Mouse Th1/Th2 Cytokine CBA Kit.

[4] = system: Primary Human endothelial cells (HUVEC); experiment: Endothelial cell migration assay; assay type: cell-based; conditions: 10 micrograms per ml, 22 hours, combination peptide 1:peptide 2 0.95 mole:1.05 mole
Protocol: Thereafter, designated concentration of testing peptides—10 micrograms per ml—was added in duplicate wells.

[5] = system: HUVEC; experiment: Endothelial tube formation assay; assay type: cell-based, human; conditions: 10 micrograms per ml, 20 hours, combination peptide 1:peptide 2 1.10 mole:0.90 mole
Protocol: The endothelial tube formation assay is based on the ability of endothelial cells to form three-dimensional capillary-like tubular structures when cultured on a gel of basement membrane extract. The endothelial tube formation assay represents a powerful model for studying inhibition and induction of angiogenesis. Pre-labeled HUVEC with Calcein AM were seeded in a 96-well culture plate coated with extracellular metrix (Chemicon international Cat. ECM625) and treated with test peptides—10 micrograms per ml—in full growth medium. Positive control was vehicle only. The endothelial cells were allowed to form tubes foe 20 hours and were then examined under an inverted fluorescent microscope. Duplicate wells for each treatment were photographed and quantitatively analyzed for an average tubule length using image analysis software ImageProPlus. Raw data were expressed as average tubule lengths in pixels±standard deviation. Statistic p values were computed using the Student's t-test.

Row | Substance | inhibition of HBV replication as compared to the virus control infection [1] | inhibition of HCMV plaque formation as compared to the virus control experiment [2] | IFNγ spleen cells; TH1 response (% of control) [3] | IL-2 spleen cells (% of control) [3] | IL-4 spleen cells; TH2 response (% of control) [3] | IL-5 spleen cells; TH2 response (% of control) [3] | TNF-a spleen cells; TH1 response (% of control) [3] | inhibition of the migration of human endothelial cells [4] [%] | inhibition of the tube formation of human endothelial cells [5]
1 | Phe-Arg-Trp-Gly-Lys-Pro-Val-Gly-Lys-Lys-Arg-Arg-Pro-Val-Lys-Val-Tyr-Pro-Asn-Gly-Ala-Glu-Asp-Glu-Ser-Ala-Glu-Ala-Phe-Pro-Leu-Glu-OH (FRWGKPVGKKRRPVKVYPNGAEDESAEAFPLE-OH) [Peptide 2] | 8.4% | does not inhibit | 113.7 % of control | 137.1 % of control | 0.0 % of control | 106.3 % of control | 138.0 % of control | 41 | did not inhibit
2 | Glu-Ile-Gly-Asp-Glu-Glu-Asn-Ser-Ala-Lys-Phe-Pro-Ile-NH2 (EIGDEENSAKFPI-NH2) [Peptide 1] | no effect | 5.8% | 149.4 % of control | 212.4 % of control | 163.3 % of control | 115.8 % of control | 155.5 % of control | 53 | 
